Results reported in US20040038855A1 (priority 1999, published 2004).
Read-outs that look alike come from different tables or passages of the source.

What was measured:
[1] = target: T1, rat MCH1 receptor (Rattus norvegicus, UniProt P97639); assay: Binding affinity (Ki) at the rat MCH1 receptor
T1 construct: expressed in transfected cells
Method: For binding assays, pellets of transfected cells are suspended in ice-cold buffer (20 mM Tris.HCl, 5 mM EDTA, pH 7.4) and homogenized by sonication for 7 sec. The cell lysates are centrifuged at 200×g for 5 min at 4° C. The supernatants are then centrifuged at 40,000×g for 20 min at 4° C. The resulting pellets are washed once in the homogenization buffer and suspended in binding buffer (see methods for radioligand binding). Protein concentrations are determined by the method of Bradford (1976) using bovine serum albumin as the standard. Binding assays are usually performed immediately, however it is possible to prepare membranes in batch and store frozen in liquid nitrogen for future use.
Binding is performed at 25° C. for 1 hr. Incubations are terminated by rapid vacuum filtration over GF/C glass fiber filters, presoaked in 5% PEI using 50 mM Tris pH 7.4 containing 0.01% triton X-100 as wash buffer.
A methanolic solution of methyl (4S)-3-({[3-(4-[3-(acetylamino)phenyl]-3,6-dihydro-1(2H)pyridinyl)propyl]amino}carbonyl)-4-(3,4-difluorophenyl)-6-(methoxymethyl)-2-oxo-1,2,3,4-tetrahydro-5-pyrimidinecarboxylate was exposed to tritium gas at 1 atmosphere pressure in the presence of 5% palladium on carbon with stirring overnight to give the tritiated methyl (4S)-3-{[(3-{4-[3-(acetylamino)phenyl]-1-piperidinyl}propyl)amino]carbonyl}-4-(3,4-difluorophenyl)-6-(methoxymethyl)-2-oxo-1,2,3,4-tetrahydro-5-pyrimidinecarboxylate ((+)-isomer) After purification by reverse phase HPLC (Hypersil ODS, 4.6×100 mm, methanol:H2O:Et3N 10:90:1 to 100:0:1 in 15 min at 1.0 mL/min, with radiochemical and UV detection), this product was used as a radioligand in the MCH1 binding assays. The same procedure was carried out with H2 gas in place of ^3H2 to afford the non-radioactive version of Compound 10.

[2] = target: T2, human Dopamine D2 receptor (Homo sapiens, UniProt P14416); assay: Binding affinity at the human dopamine D2 receptor; details: Table 3c; read-out: hD2 Ki
T2 construct: purchased BioSignal, Inc. (Montreal, Canada)
Excerpt: (§1) Other receptors: Cell membranes expressing human dopamine D1, D2, D4 and rat D3 receptors were purchased through BioSignal, Inc. (Montreal, Canada). Binding assays using the histamine H1 receptor; dopamine receptors; and α1A, α1B, and α2 adrenergic receptors may be carried out according to the procedures described in U.S. Pat. No. 5,780,485, the disclosure of which is hereby incorporated by reference in its entirety into this application. Binding assays using the dopamine D5 receptor may be carried out according to the procedures described in U.S. Pat. No. 5,882,855, the disclosure of which is hereby incorporated by reference in its entirety into this application. Binding assays for the human α1D adrenergic receptor may be carried out according to the procedures described in U.S. Pat. No. 6,156,518, the disclosure of which is hereby incorporated by reference in its entirety into this application.

[3] = target: T3, human Alpha-1a Adrenergic receptor (Homo sapiens, UniProt P35348); assay: Binding affinity at the human alpha-1A adrenergic receptor; details: Table 3c; read-out: hAlpha-1a Ki
T3 construct: expressed in transfected cells
T3 sequence (P35348 1-466): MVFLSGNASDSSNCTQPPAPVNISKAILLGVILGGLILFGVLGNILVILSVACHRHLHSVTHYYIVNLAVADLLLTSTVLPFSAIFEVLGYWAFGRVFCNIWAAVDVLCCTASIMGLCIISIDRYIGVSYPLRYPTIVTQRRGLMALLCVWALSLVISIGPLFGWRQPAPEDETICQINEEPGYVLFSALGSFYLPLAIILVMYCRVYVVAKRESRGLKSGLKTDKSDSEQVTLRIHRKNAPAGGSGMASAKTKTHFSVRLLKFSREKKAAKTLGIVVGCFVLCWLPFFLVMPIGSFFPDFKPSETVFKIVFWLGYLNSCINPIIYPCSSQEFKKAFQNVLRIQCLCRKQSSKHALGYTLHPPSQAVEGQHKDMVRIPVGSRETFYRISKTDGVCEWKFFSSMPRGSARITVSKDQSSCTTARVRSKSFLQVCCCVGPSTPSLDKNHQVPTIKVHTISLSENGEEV
Excerpt: as §1

[4] = Examples 38-141, read-out: Ki (nM) rMCH1
[5] = Examples 142-153, read-out: Ki (nM) rMCH1

T1 sequence (P97639 whole entry): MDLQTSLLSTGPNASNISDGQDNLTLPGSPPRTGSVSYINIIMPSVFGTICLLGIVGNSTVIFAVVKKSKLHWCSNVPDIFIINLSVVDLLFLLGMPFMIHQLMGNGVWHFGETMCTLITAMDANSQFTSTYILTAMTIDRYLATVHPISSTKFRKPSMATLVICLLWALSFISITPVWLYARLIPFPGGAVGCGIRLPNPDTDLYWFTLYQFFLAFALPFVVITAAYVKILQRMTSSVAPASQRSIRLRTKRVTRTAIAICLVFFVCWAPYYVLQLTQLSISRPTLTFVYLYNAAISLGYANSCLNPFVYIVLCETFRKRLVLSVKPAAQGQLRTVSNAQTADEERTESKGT
T2 sequence (P14416 whole entry): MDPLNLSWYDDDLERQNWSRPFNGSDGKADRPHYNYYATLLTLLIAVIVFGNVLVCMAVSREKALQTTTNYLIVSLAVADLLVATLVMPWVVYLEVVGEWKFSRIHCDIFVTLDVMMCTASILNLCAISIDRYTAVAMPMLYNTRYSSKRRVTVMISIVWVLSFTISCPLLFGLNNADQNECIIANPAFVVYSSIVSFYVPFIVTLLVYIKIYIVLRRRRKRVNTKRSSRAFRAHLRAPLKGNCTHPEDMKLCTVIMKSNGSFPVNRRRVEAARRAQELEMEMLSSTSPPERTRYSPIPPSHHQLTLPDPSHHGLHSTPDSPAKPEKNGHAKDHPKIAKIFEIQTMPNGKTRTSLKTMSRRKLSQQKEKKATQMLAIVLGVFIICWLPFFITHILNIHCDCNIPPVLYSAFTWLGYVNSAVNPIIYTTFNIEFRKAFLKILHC

Compound	Ki [1, 4]	Ki ([1]; Table 3c, read-out: rMCH1 Ki)	Ki [2]	Ki [3]	Ki [1, 5]
COc1cccc(CC(=O)Nc2cccc(C3CCN(CCCC(=O)c4ccc(Oc5ccccc5)cc4)CC3)c2)c1 [Example 83]	91 nM	91 nM	503 nM	130 nM	–
CN(C)S(=O)(=O)Nc1cccc(C2CCN(CCCC(=O)c3ccc(Cl)cc3)CC2)c1 [Example 84]	511 nM	511 nM	–	–	–
CC(=O)Nc1cccc(C2CCN(CCCC(=O)c3cccs3)CC2)c1 [Example 85]	654 nM	654 nM	–	–	–
CC(=O)Nc1cccc(C2CCN(CCCC(=O)c3ccc(C(C)C)cc3)CC2)c1 [Example 86]	382 nM	382 nM	–	–	–
CC(=O)Nc1cccc(C2CCN(CCCC(=O)c3ccc(C)cc3)CC2)c1 [Example 87]	362 nM	362 nM	–	–	–
CC(=O)Nc1cccc(C2CCN(CCCC(=O)c3ccc(Br)cc3)CC2)c1 [Example 88]	160 nM	160 nM	–	–	–
Cc1ccc(C(=O)CCCN2CCC(c3cccc(NS(=O)(=O)C(C)C)c3)CC2)cc1C [Example 89]	615 nM	615 nM	–	–	–
CC(C)S(=O)(=O)Nc1cccc(C2CCN(CCCC(=O)c3ccc(Oc4ccccc4)cc3)CC2)c1 [Example 90]	651 nM	651 nM	–	–	–
CC(C)C(=O)Nc1cccc(C2CCN(CCCN3C(=O)c4ccccc4C3=O)CC2)c1 [Example 97]	946 nM	946 nM	–	–	–
CC(C)C(=O)Nc1cccc(C2CCN(CC[C@H](O)c3ccccc3)CC2)c1 [Example 98]	118 nM	118 nM	–	–	–
COc1cccc(CN2CCC(c3cccc(NC(=O)C(C)C)c3)CC2)c1 [Example 102]	187 nM	187 nM	–	–	–
CC(C)C(=O)Nc1cccc(C2CCN(CC[C@H](Oc3ccc(-c4ccccc4)cc3)c3ccccc3)CC2)c1 [Example 134]	22.2 nM	22.2 nM	37.6 nM	1310 nM	–
CC(C)C(=O)Nc1cccc(C2CCN(CC[C@H](Oc3cccc4ccccc34)c3ccccc3)CC2)c1 [Example 137]	377 nM	377 nM	–	–	–
CC(C)C(=O)Nc1cccc(C2CCN(CC[C@@H](c3ccccc3)N3C(=O)c4ccccc4C3=O)CC2)c1 [Example 138]	11.2 nM	11.2 nM	–	–	–
CC(C)C(=O)Nc1cccc(C2CCN(CC[C@H](Oc3ccc(Oc4ccccc4)cc3)c3ccccc3)CC2)c1 [Example 139]	48.1 nM	48.1 nM	–	–	–
COc1ccc(O[C@H](CCN2CCC(c3ccc(NC(=O)C(C)C)cc3)CC2)c2ccccc2)cc1OC [Example 140]	121 nM	121 nM	–	–	–
CC(C)C(=O)Nc1cccc(C2CCN(Cc3c[nH]c4cc(Cl)ccc34)CC2)c1 [Example 142]	–	–	–	–	20.6 nM
Cc1ccc(-n2cc(CN3CCC(c4cccc(NC(=O)C(C)C)c4)CC3)c3ccccc32)cc1 [Example 143]	–	–	–	–	14.9 nM
CCC(=O)N[C@@H](CCN1CCC(c2cccc(NC(=O)C(C)C)c2)CC1)c1ccccc1 [Example 144]	–	–	–	–	16 nM
CC(C)C(=O)Nc1cccc(C2CCN(CC[C@H](NC(=O)Cc3ccc(F)cc3)c3ccccc3)CC2)c1 [Example 145]	–	–	–	–	3 nM
CC(C)C(=O)Nc1cccc(C2CCN(CCCc3c(-c4ccccc4)n(-c4ccccc4)c4ccccc34)CC2)c1 [Example 146]	–	–	–	–	3 nM
CC(C)C(=O)Nc1cccc(C2CCN(Cc3ccc(Oc4ccc(Cl)cc4)cc3)CC2)c1 [Example 150]	–	–	–	–	5.2 nM
